Assays:
[1] = Laser irradiation to extirpated organ: distribution (cancer/organ ratio) by surface fluorescence, N2-pulsed laser, mice bearing Colon 26; format: in vivo, CDF1 mice; settings: mouse, tumor/plasma, sodium salt, 10 mg/kg intravenous
Procedure: (§1) CDF1 mice (5 per group) were implanted with tumor tissues of colon cancer Colon 26. Two weeks after the implantation, the mice were given an intravenous injection of sodium salt of each of compounds (I) and (II) (10 mg/kg for each mouse) which had been diluted with a distilled water for injection. At 3 hrs, 6 hrs and 12 hrs after the injection, the blood samples were collected and the organs bearing the tumor tissue were extirpated, irradiated with N2 -pulsed laser (N2, wavelength: 337 nm, 2 ns), and the excited fluorescent spectrum was measured. The wavelengths in the range of 600 to 900 nm were examined based on the peak wavelength of NADH at 470 nm (determination of the distribution of the test compound in the organ by the surface fluorescence method using N2 -pulsed laser spectrophotometry). That is, cancer/organ (or plasma) ratio was determined by calculating the peak wavelength in the range of 600 to 900 nm when the peak wavelength at 470 nm was considered as the basic value, 1.

[2] = test system: colon cancer Colon 26; experiment: as above; format: in vivo, CDF1 mice; settings: sodium salt, 10 mg/kg intravenous
Procedure: as §1

[3] = test system: HeLa cells; experiment: HeLa cell survival after diode laser (670 nm) irradiation, MTS-PMS reagent; format: cell-based; settings: Homo sapiens, HeLa, light or radiation study, sodium salt, 6 hrs, 670 nm, 25 J/cm^2, read-out: Cell Survival Rate
Procedure: HeLa cells were seeded in wells of a 96-well plate each containing 100 μl of a culture medium at 5×10^3 /well, and incubated at 37° C. overnight. In each well, the culture medium was removed, and 100 μl of a solution containing sodium salt of either of compound (I) or compound (II) in concentrations of 0, 6.25, 12.5, 25, 50 and 100 μM/ml was added (3 wells for each group of the concentrations) and incubated at 37° C. at for 6 hrs. Each well was washed with PBS(-) once, and then 100 μl of a fresh medium was added. The wells were irradiated using a diode laser (670 nm) under the conditions of 0.44W of laser intensity, 0.785 cm^2 of irradiation area (diameter: 1 cm) and 25 J/cm^2 of laser energy. After the irradiation, each well was incubated at 37° C. overnight and washed with PBS(-) once, then 100 μl of a fresh medium was added. To each well was added 20 μl of MTS-PMS reagent, and the well was further incubated at 37° C. for 2-4 hrs. The absorbance of each well at 492 nm was measured using a microplate reader. The cell survival rate at each of the above mentioned concentrations of the test compound was calculated considering the value for the well of 0 μM/ml of the test compound as 100%.

Kp at 3 h ([1]; 3 hr): 0.3
Kp at 6 h ([1]; 6 hr): 1.12
Kp at 12 h ([1]; 12 hr): 0.66
Cancer/Brain ratio ([2]; 3 hr): 10.10
Cancer/Kidney ratio ([2]; 3 hr): 0.67
Cancer/Liver ratio ([2]; 3 hr): 0.62
Cancer/Lung ratio ([2]; 3 hr): 2.35
Cancer/Muscle ratio ([2]; 3 hr): 1.23
Cancer/Brain ratio ([2]; 6 hr): 16.0
Cancer/Kidney ratio ([2]; 6 hr): 0.59
Cancer/Liver ratio ([2]; 6 hr): 1.01
Cancer/Lung ratio ([2]; 6 hr): 4.59
Cancer/Muscle ratio ([2]; 6 hr): 1.26
Cancer/Brain ratio ([2]; 12 hr): 15.0
Cancer/Kidney ratio ([2]; 12 hr): 0.95
Cancer/Liver ratio ([2]; 12 hr): 1.11
Cancer/Lung ratio ([2]; 12 hr): 2.68
Cancer/Muscle ratio ([2]; 12 hr): 2.95
Compound: C=Cc1c(C)c2cc3nc(cc4[nH]c(cc5nc(cc1[nH]2)C(C)(O)C5=CC=NO)c(C)c4CCC(=O)NC(CC(=O)O)C(=O)O)C(CCC(=O)NC(CC(=O)O)C(=O)O)=C3C (centres unmarked) [Compound (II), reference compound]
viability at 6.25 µM ([3]; 6.25 μM): 81%
viability at 12.5 µM ([3]; 12.5 μM): 54%
viability at 25 µM ([3]; 25 μM): 48%
viability at 50 µM ([3]; 50 μM): 35%
viability at 100 µM ([3]; 100 μM): 19%
